Measurements: ChEMBL document CHEMBL4680234, “Antibacterial AZT derivative regulates metastasis of breast cancer cells” (Eur J Med Chem, 2020)
≈ marks a conversion by molar mass, not a printed value. Calls of active or inactive are those of the source. No cut-off for these calls is given here.

How the values were obtained:
Escherichia coli = experiment: Antibacterial activity against Escherichia coli KCTC 1682 assessed as reduction in bacterial growth incubated for 18 to 22 hrs by spectrophotometry based broth microdilution method; format: functional; settings: time 18-22 hrs, read-out: MIC100
Pseudomonas aeruginosa [1] = experiment: Antibacterial activity against Pseudomonas aeruginosa KCTC 1637 assessed as reduction in bacterial growth incubated for 18 to 22 hrs by spectrophotometry based broth microdilution method; format: functional; settings: time 18-22 hrs, read-out: MIC100
Bacillus subtilis [2] = experiment: Antibacterial activity against Bacillus subtilis KCTC 3068 assessed as reduction in bacterial growth incubated for 18 to 22 hrs by spectrophotometry based broth microdilution method; format: functional; settings: time 18-22 hrs, read-out: MIC100
Staphylococcus aureus [3] = experiment: Antibacterial activity against Staphylococcus aureus KCTC 1621 assessed as reduction in bacterial growth incubated for 18 to 22 hrs by spectrophotometry based broth microdilution method; format: functional; settings: time 18-22 hrs, read-out: MIC100
[4] = Hemolytic activity in sheep RBC assessed as hemolysis at 4 ug/ml measured after 2 hrs by ELISA relative to control; format: ADME, cell-based, Ovis aries, Erythrocyte; settings: sheep red blood cells (erythrocytes), at 4 µg/mL, read-out: Activity
Erythrocyte [5] = experiment: Hemolytic activity in sheep RBC measured after 2 hrs by ELISA; format: ADME, cell-based, Ovis aries
[6] = Therapeutic index, ratio of MHC for sheep RBC to geometric mean of peptide MIC for Escherichia coli KCTC 1682; format: toxicity; settings: sheep red blood cells (erythrocytes), read-out: TI
[7] = Therapeutic index, ratio of MHC for sheep RBC to geometric mean of peptide MIC for Pseudomonas aeruginosa KCTC 1637; format: toxicity; settings: sheep red blood cells (erythrocytes), read-out: TI
[8] = Therapeutic index, ratio of MHC for sheep RBC to geometric mean of peptide MIC for Bacillus subtilis KCTC 3068; format: toxicity; settings: sheep red blood cells (erythrocytes), read-out: TI
[9] = Therapeutic index, ratio of MHC for sheep RBC to geometric mean of peptide MIC for Staphylococcus aureus KCTC 1621; format: toxicity; settings: sheep red blood cells (erythrocytes), read-out: TI
MDA-MB-231 [10] = experiment: Inhibition of actin polymerization in human MDA-MB-231 cells assessed as reduction in lamellipodium formation at 20 to 40 uM measured after 6 hrs by Texas Red-conjugated phalloidin staining based fluorescence microscopic analysis; format: cell-based; settings: dose 20-40 µM
MDA-MB-231 [11] = experiment: Antimigratory activity in human MDA-MB-231 cells assessed as reduction in wound closure at 40 uM measured after 18 to 36 hrs by microscopic analysis; format: functional, cell-based; settings: time 18-36 hrs
Pseudomonas aeruginosa [12] = experiment: Potency index, ratio of melittin MIC to test compound MIC for antibacterial activity against Pseudomonas aeruginosa KCTC 1637; format: functional
Bacillus subtilis [13] = experiment: Potency index, ratio of melittin MIC to test compound MIC for antibacterial activity against Bacillus subtilis KCTC 3068; format: functional
Staphylococcus aureus [14] = experiment: Potency index, ratio of melittin MIC to test compound MIC for antibacterial activity against Staphylococcus aureus KCTC 1621; format: functional
Erythrocyte [15] = experiment: Hemolytic activity in sheep RBC at 16 ug/ml measured after 2 hrs by ELISA; format: cell-based, Ovis aries; settings: dose 16 µg/ml
Staphylococcus aureus [16] = experiment: Antimicrobial activity against methicillin-resistant Staphylococcus aureus CCARM 3089 assessed as reduction in microbial growth incubated for 18 to 24 hrs by broth microdilution method; format: functional; settings: time 18-24 hrs
Staphylococcus aureus [17] = experiment: Antimicrobial activity against methicillin-resistant Staphylococcus aureus CCARM 3090 assessed as reduction in microbial growth incubated for 18 to 24 hrs by broth microdilution method; format: functional; settings: time 18-24 hrs
Staphylococcus aureus [18] = experiment: Antimicrobial activity against methicillin-resistant Staphylococcus aureus CCARM 3095 assessed as reduction in microbial growth incubated for 18 to 24 hrs by broth microdilution method; format: functional; settings: time 18-24 hrs
Staphylococcus aureus [19] = experiment: Potency index, ratio of melittin MIC to test compound MIC for antimicrobial activity against methicillin-resistant Staphylococcus aureus CCARM 3089; format: functional
Staphylococcus aureus [20] = experiment: Potency index, ratio of melittin MIC to test compound MIC for antimicrobial activity against methicillin-resistant Staphylococcus aureus CCARM 3090; format: functional
Staphylococcus aureus [21] = experiment: Potency index, ratio of melittin MIC to test compound MIC for antimicrobial activity against methicillin-resistant Staphylococcus aureus CCARM 3095; format: functional
MDA-MB-231 [22] = experiment: Cytotoxicity against human MDA-MB-231 cells assessed as reduction in cell viability at 50 uM measured after 48 hrs by EZCytox cell viability assay; format: cell-based; settings: mda-mb-231, 48 h
MDA-MB-231 [23] = experiment: Antiinvasive activity in human MDA-MB-231 cells at 40 uM measured after 16 hrs using crystal violet staining microscopy based Boyden chamber assay; format: functional, cell-based
MDA-MB-231 [24] = experiment: Inhibition of cell motility in human MDA-MB-231 cells assessed as reduction in cell migration distance at 40 uM measured at 30 mins interval for 24 hrs by time-lapse […] analysis; format: functional, cell-based
Pseudomonas aeruginosa [25] = experiment: Potency index, ratio of melittin MIC to test compound MIC for antimicrobial activity against multidrug-resistant Pseudomonas aeruginosa CCARM 2095 assessed as reduction in microbial growth
Pseudomonas aeruginosa [26] = experiment: Potency index, ratio of melittin MIC to test compound MIC for antimicrobial activity against multidrug-resistant Pseudomonas aeruginosa CCARM 2109 assessed as reduction in microbial growth

Cc1cn([C@H]2C[C@H](NC(=O)Cc3cccc4ccccc34)[C@@H](CNC(=O)Cc3cccc4ccccc34)O2)c(=O)nc1NCCNC(=N)N
MIC (Escherichia coli): > 64 µg/mL
MIC (Pseudomonas aeruginosa [1]): > 64 µg/mL
MIC (Bacillus subtilis [2]): 16 µg/mL (≈ 24.2 µM)
MIC (Staphylococcus aureus [3]): 32 µg/mL (≈ 48.4 µM)

CC[C@H](C)[C@H](NC(=O)CN)C(=O)NCC(=O)N[C@@H](C)C(=O)N[C@H](C(=O)N[C@@H](CC(C)C)C(=O)N[C@@H](CCCCN)C(=O)N[C@H](C(=O)N[C@@H](CC(C)C)C(=O)N[C@H](C(=O)N[C@H](C(=O)NCC(=O)N[C@@H](CC(C)C)C(=O)N1CCC[C@H]1C(=O)N[C@@H](C)C(=O)N[C@@H](CC(C)C)C(=O)N[C@H](C(=O)N[C@@H](CO)C(=O)N[C@@H](Cc1c[nH]c2ccccc12)C(=O)N[C@H](C(=O)N[C@@H](CCCCN)C(=O)N[C@@H](CCCNC(=N)N)C(=O)N[C@@H](CCCCN)C(=O)N[C@@H](CCCNC(=N)N)C(=O)N[C@@H](CCC(N)=O)C(=O)N[C@@H](CCC(N)=O)C(N)=O)[C@@H](C)CC)[C@@H](C)CC)[C@@H](C)O)[C@@H](C)O)C(C)C)C(C)C [MELITTIN]
hemolysis at 2 h, 4 ug/ml [4]: 12%
MHC (Erythrocyte [5]): 4 µg/mL
selectivity ratio [6]: 0.3
selectivity ratio [7]: 0.3
selectivity ratio [8]: 0.3
selectivity ratio [9]: 0.3

Cc1cn([C@H]2C[C@H](NC(=O)CC34CC5CC(CC(C5)C3)C4)[C@@H](CNC(=O)CC34CC5CC(CC(C5)C3)C4)O2)c(=O)nc1N(CCCNC(=N)N)CCCNC(=N)N
inhibition (MDA-MB-231 [10]): Active
Activity (MDA-MB-231 [11]): Active
MIC (Escherichia coli): 16 µg/mL (≈ 20.3 µM)
MIC (Pseudomonas aeruginosa [1]): 4 µg/mL (≈ 5.06 µM)
MIC (Bacillus subtilis [2]): 2 µg/mL (≈ 2.53 µM)
MIC (Staphylococcus aureus [3]): 2 µg/mL (≈ 2.53 µM)
Ratio (Pseudomonas aeruginosa [12]): 4
Ratio (Bacillus subtilis [13]): 4
Ratio (Staphylococcus aureus [14]): 4
Activity (Erythrocyte [15]): Non-Toxic
MHC (Erythrocyte [5]): 25 µg/mL
selectivity ratio [6]: 4.2
selectivity ratio [7]: 4.2
selectivity ratio [8]: 4.2
selectivity ratio [9]: 4.2
MIC (Staphylococcus aureus [16]): 8 µg/mL
MIC (Staphylococcus aureus [17]): 8 µg/mL
MIC (Staphylococcus aureus [18]): 8 µg/mL
Ratio (Staphylococcus aureus [19]): 2
Ratio (Staphylococcus aureus [20]): 2
Ratio (Staphylococcus aureus [21]): 2
Activity (MDA-MB-231 [22]): Non-Toxic
Activity (MDA-MB-231 [23]): Active
Activity (MDA-MB-231 [24]): Active
Ratio (Pseudomonas aeruginosa [25]): 2
Ratio (Pseudomonas aeruginosa [26]): 2

CCCCCC(=O)NC[C@H]1O[C@@H](n2cc(C)c(NCCNC(=N)N)nc2=O)C[C@@H]1NC(=O)CCCCC
MIC (Escherichia coli): > 64 µg/mL
MIC (Pseudomonas aeruginosa [1]): 64 µg/mL (≈ 123 µM)
MIC (Bacillus subtilis [2]): > 64 µg/mL
MIC (Staphylococcus aureus [3]): > 64 µg/mL

O=C(O)c1cn(C2CC2)c2cc(N3CCNCC3)c(F)cc2c1=O [CIPROFLOXACIN]
MIC (Staphylococcus aureus [16]): 512 µg/mL
MIC (Staphylococcus aureus [17]): 512 µg/mL
MIC (Staphylococcus aureus [18]): 512 µg/mL

Cc1cn([C@H]2C[C@H](NC(=O)CC34CC5CC(CC(C5)C3)C4)[C@@H](CNC(=O)CC34CC5CC(CC(C5)C3)C4)O2)c(=O)nc1N(CCCN)CCCN
MIC (Escherichia coli): 32 µg/mL (≈ 45.3 µM)
MIC (Pseudomonas aeruginosa [1]): 4 µg/mL (≈ 5.67 µM)
MIC (Bacillus subtilis [2]): 2 µg/mL (≈ 2.83 µM)
MIC (Staphylococcus aureus [3]): 4 µg/mL (≈ 5.67 µM)
Ratio (Pseudomonas aeruginosa [12]): 4
Ratio (Bacillus subtilis [13]): 4
Ratio (Staphylococcus aureus [14]): 2
Activity (Erythrocyte [15]): Non-Toxic
MHC (Erythrocyte [5]): 52 µg/mL
selectivity ratio [6]: 5
selectivity ratio [7]: 5
selectivity ratio [8]: 5
selectivity ratio [9]: 5

Cc1cn([C@H]2C[C@H](NC(=O)CCCc3ccccc3)[C@@H](CNC(=O)CCCc3ccccc3)O2)c(=O)nc1NCCNC(=N)N
MIC (Escherichia coli): > 64 µg/mL
MIC (Pseudomonas aeruginosa [1]): 32 µg/mL (≈ 51.9 µM)
MIC (Bacillus subtilis [2]): 64 µg/mL (≈ 104 µM)
MIC (Staphylococcus aureus [3]): 64 µg/mL (≈ 104 µM)

CCCCCC(=O)NC[C@H]1O[C@@H](n2cc(C)c(N(CCCNC(=N)N)CCCNC(=N)N)nc2=O)C[C@@H]1NC(=O)CCCCC
MIC (Escherichia coli): > 64 µg/mL
MIC (Pseudomonas aeruginosa [1]): 16 µg/mL (≈ 25.2 µM)
MIC (Bacillus subtilis [2]): 32 µg/mL (≈ 50.5 µM)
MIC (Staphylococcus aureus [3]): 32 µg/mL (≈ 50.5 µM)

Cc1cn([C@H]2C[C@H](NC(=O)CCCc3ccccc3)[C@@H](CNC(=O)CCCc3ccccc3)O2)c(=O)nc1N(CCCN)CCCN
MIC (Escherichia coli): > 64 µg/mL
MIC (Pseudomonas aeruginosa [1]): 4 µg/mL (≈ 6.19 µM)
MIC (Bacillus subtilis [2]): 16 µg/mL (≈ 24.8 µM)
MIC (Staphylococcus aureus [3]): 32 µg/mL (≈ 49.5 µM)

Cc1cn([C@H]2C[C@H](NC(=O)C3CCCCC3)[C@@H](CNC(=O)C3CCCCC3)O2)c(=O)nc1N(CCCNC(=N)N)CCCNC(=N)N
MIC (Escherichia coli): > 64 µg/mL
MIC (Pseudomonas aeruginosa [1]): 16 µg/mL (≈ 24.3 µM)
MIC (Bacillus subtilis [2]): 32 µg/mL (≈ 48.6 µM)
MIC (Staphylococcus aureus [3]): 32 µg/mL (≈ 48.6 µM)
